According to patent publication US20260151367A1, “KIT TO PROMOTE DEVELOPMENTAL MYELINATION” (SOCIÉTÉ DES PRODUITS NESTLÉ S.A., priority 2022, published 2026):

Assays:
[1] = tested on: myelin water fraction (MWF); assay: Linear model of myelin versus nutrient intake, all ages included; type: in vivo, human; settings: for association with myelin levels in age-adjusted models across age windows: all ages, linear model; for nutIntake*logAge estimate / nutIntake estimate: linear model across ages, Box Cox transformed MWF; for nutIntake*logAge estimate: coefficient of the intake x log age interaction term; for nutIntake estimate: coefficient of the nutrient intake term
Protocol: The inventors have investigated the developmental dynamics of nutrient-myelin interactions from infancy to early childhood, using myelin imaging as a marker for brain maturation. Brain neuroimaging and infant nutritional intake information were analyzed from 293 children from a longitudinal cohort study in the US. A sliding window approach was used to investigate the relationship between the nutrient intake and brain region myelination over a continuous set of age windows.
For inclusion in the analysis of the present study, 293 children between 6 months and 60 months of age were selected who met the following criteria: 1. Singleton full-term (>37 weeks) pregnancy; 2. Uncomplicated pregnancy (i.e., no reports of pre-eclampsia, gestational hypertension or gestation diabetes mellitus, GDM); 3. No reports of abnormalities on fetal ultrasound; 4. Infant 5 minute APGAR scores ≥8; 5. Infant birth weight greater than 1500 g; 6. No reported history of neurological trauma in the child; 7. No reported sibling or parental psychiatric history, including autism; and 8. No reports of major depressive disorder requiring medication in the mother during pregnancy or in the 6 months prior to becoming pregnant. In addition, children had to have a successful MRI scan and time-matched nutrition intake information for at least one 24-hour period within a week of the MRI.
From the acquired mcDESPOT data, the myelin water fraction (MWF) was calculated using a processing pipeline that includes linear alignment of the SPGR, IR-SPGR, and bSSFP images to account for subtle intra-scan head movement, non-parenchyma voxel removal, and correction of flip angle errors and off-resonance inhomogeneities using DESPOT1-HIFI and DESPOT2-FM. A 3-pool tissue model was fit to the multi-angle SPGR and bSSFP data to estimate the MWF, a surrogate and non-invasive measure of myelin content. The MWF images (maps) were then non-linearly aligned to a common analysis space in approximate MNI space using a previously described multi-step approach that first aligns the subject's high flip angle T1 weighted SPGR image to one of 14 age-specific templates and then to an overall study-specific template using non-linear 3D deformation, ANTS. The calculated transformation matrices are then applied to the quantitative MWF maps.
Nutrient intake data was collected through the Automated Self-Administered 24-hour dietary assessment tool (ASA-24). The average daily nutrient intake per scan age was calculated, resulting in 293 observations with 88 nutrients. Values for amino acids and phospholipids, including sphingomyelin, were retrieved from the relevant United States Department of Agriculture (USDA) databases. The USDA choline database contains the values of free choline, glycerophosphocholine, phosphocholine, phosphatidylcholine and sphingomyelin for about 630 foods. […] The oligosaccharides 3′SL and 6′SL are only found in milk products, values of 114 and 23 mg/100 g were used for their respective concentrations in cow's milk. For the estimation of oligofructose, the inventors based their calculations on Moshfegh et al. J. Nutr. 1999; 129(7 Suppl): 1407s-11s. We then mapped the foods reported in ASA-24 to the corresponding items in the USDA database and calculated the daily totals.
(§1) A linear model, like, was fitted to the dataset, all ages included, for each nutrient. Linear models with significant and positive coefficients for the nutrient intake terms were considered as indicative of a linear positive correlation with myelin. The myelin water fraction was Box Cox transformed to make it more symmetric. In addition, to account for possibly non-linear associations and for correlations between the nutrients, we performed a regression model using a random forest and used a feature selection algorithm for finding all relevant variables.

[2] = tested on: myelin water fraction (MWF); assay: Random forest regression with feature selection for nutrients across ages; type: in vivo, human; settings: listed in order of average importance after log Age
Source text: as §1
FIG. 2 compares the values of the transformed MWF with the values predicted by the random forest, on a test set.

myelination = settings: potentially via a reduction in sialylated binding targets for the myelin associated glycoprotein; cited from earlier work

CC(=O)N[C@H]1[C@H]([C@H](O)[C@H](O)CO)O[C@@](O[C@H]2[C@@H](O)[C@@H](CO)O[C@@H](O[C@H]3[C@H](O)[C@@H](O)C(O)O[C@@H]3CO)[C@@H]2O)(C(=O)O)C[C@@H]1O (stereo partly shown) [3′SL, 3′-sialyllactose]
association with myelin levels in age-adjusted models across age windows [1]: linked with higher myelin levels | nutIntake*logAge estimate [1]: 0.000 | nutIntake estimate [1]: 0.002 | variables selected by the random forest model, sorted by average importance [2]: selected by the random forest model

CC(=O)N[C@H]1[C@H]([C@H](O)[C@H](O)CO)O[C@@](OC[C@H]2O[C@@H](O[C@H]3[C@H](O)[C@@H](O)[C@H](O)O[C@@H]3CO)[C@H](O)[C@@H](O)[C@H]2O)(C(=O)O)C[C@@H]1O [6′SL, 6′-sialyllactose]
association with myelin levels in age-adjusted models across age windows [1]: linked with higher myelin levels | nutIntake*logAge estimate [1]: −0.001 | nutIntake estimate [1]: 0.009 | impact on myelination in a preclinical study (myelination): impact myelination

[Ca+2] [Calcium]
variables selected by the random forest model, sorted by average importance [2]: selected by the random forest model

CC1=C(/C=C/C(C)=C/C=C/C(C)=C/C=C/C=C(C)/C=C/C=C(C)/C=C/C2=C(C)CCCC2(C)C)C(C)(C)CCC1 [Carotene, beta]
variables selected by the random forest model, sorted by average importance [2]: selected by the random forest model

CC[C@H](C)[C@H](N)C(=O)O [Isoleucine]
variables selected by the random forest model, sorted by average importance [2]: selected by the random forest model

NCCCC[C@H](N)C(=O)O [Lysine]
association with myelin levels in age-adjusted models across age windows [1]: linked with higher myelin levels | nutIntake*logAge estimate [1]: −0.005 | nutIntake estimate [1]: 0.033

CSCC[C@H](N)C(=O)O [Methionine]
variables selected by the random forest model, sorted by average importance [2]: selected by the random forest model

[P] [Phosphorus]
variables selected by the random forest model, sorted by average importance [2]: selected by the random forest model

N[C@@H](CO)C(=O)O [Serine]
variables selected by the random forest model, sorted by average importance [2]: selected by the random forest model

Octadecadienoic acid [Octadecadienoic (Linoleic, 18:2)]
variables selected by the random forest model, sorted by average importance [2]: selected by the random forest model

Phosphatidylcholine
variables selected by the random forest model, sorted by average importance [2]: selected by the random forest model

Phosphatidylinositol
variables selected by the random forest model, sorted by average importance [2]: selected by the random forest model

Phosphatidylserine
variables selected by the random forest model, sorted by average importance [2]: selected by the random forest model

Sphingomyelin
variables selected by the random forest model, sorted by average importance [2]: selected by the random forest model

B1: α-lactalbumin: whey protein of 123 amino acids and 4 disulfide bridges, molecular weight 14.2K Daltons (protein, UniProt P00711 20-142, looked up)
Alpha-lactalbumin: EQLTKCEVFRELKDLKGYGGVSLPEWVCTTFHTSGYDTQAIVQNNDSTEYGLFQINNKIWCKDDQNPHSSNICNISCDKFLDDDLTDDIMCVKKILDKVGINYWLAHKALCSEKLDQWLCEKL
association with myelin levels in age-adjusted models across age windows [1]: linked with higher myelin levels | nutIntake*logAge estimate [1]: −0.014 | nutIntake estimate [1]: 0.097
